For the assay, the target named is T1, human NOD2 (Homo sapiens, UniProt Q9HC29).
T1 construct: host or cells: HEK293
Description: human NOD2 specific reporter gene assay (NF-κB induction). It is filed as cell-based. As for the experimental part: Example 5: High-throughput screens in porcine blood: Curated compound collections were obtained from the Institute for Therapeutics Discovery & Development at the University of Minnesota. Compound transfers from source (80 nL of 10 mM stocks) to assay plates were performed using an Echo 550 acoustic liquid handler (Labcyte, Sunnyvale, Calif.). For most libraries, a target final concentration of 10 μM of compound (in a final volume of 80 μL for the assay described below) was achieved. Compound plates were hermetically sealed and stored at −80° C. until used. Fresh, heparin-anticoagulated porcine blood from healthy animals were obtained under USDA supervision from Midwest Research Swine, LLC (Glencoe, Minn.). 80 μL of hematocrit-enriched porcine blood (low-speed centrifugation, followed by resuspension in DMEM supplemented with 10% fetal bovine serum) was added to compound plates and incubated for 15 h. The following day, the plates were briefly centrifuged (100 g, 10 min), and supernatants were transferred using an automated ViaFlow 384 transfer device (Integra Biosciences Corp., Hudson, N.H.) to assay plates containing of 10^6 cells/mL of each of the following NF-κB/secreted alkaline phosphatase reporter cells suspended in HEK-Blue Detection Media: human IFN-α/β, human IFN-γ, human TNF-α/IL-1β (InvivoGen, San Diego, Calif.). NF-κB translocation was assayed spectrophotometrically using an alkaline phosphatase-specific chromogen (present in HEK-detection medium as supplied by InvivoGen) at 620 nm using a SpectraMax M4 multimode microplate reader (Molecular Devices, Sunnyvale, Calif.). Z′ factors were computed for each TLR/NOD-specific signals. Hits were defined as signals >4σ (in-plate standard deviations for test compounds above negative control means), were deconvoluted in full dose-response assays in human TLR-2/-3/-4/-5/-7/-8/-9 and NOD-1/NOD-2-specific reporter cells in liquid handler-assisted assay formats as described previously. Example 6: Murine knockout cell-lines: The following reagents were obtained through BEI Resources, NIAID, NIH: the microglial cell line derived from MAL/MyD88 double knockout Mice (NR-9904), and the macrophage cell line derived from TRIF/TRAM knockout mice (NR-9568). Example 7: Human NOD1/2-specific reporter gene assays (NF-κB induction), and TLR-2/-3/-4/-5/-7/-8/-9/STING/ISG counter-screens: The induction of NF-κB was quantified using human TLR-2/-3/-4/-5/-7/-8/-9/NOD-1/NOD-2/STING/ISG-specific, rapid-throughput, liquid handler-assisted reporter gene assays as previously described by us (Wu, W. et al. J. Med. Chem. 2010, 53, 3198-3213; Shukla, N. M. et al. J. Med. Chem. 2010, 53, 4450-4465; Agnihotri, G. et al. J. Med. Chem. 2011, 54, 1490-1510 and Ukani, R. et al. Bioorg. Med. Chem. Lett. 2012, 22, 293-295). HEK293 cells stably co-transfected with the appropriate hTLR and secreted alkaline phosphatase (sAP) were maintained in HEK-Blue™ Selection medium. Stable expression of secreted alkaline phosphatase (sAP) under control of NF-κB/AP-1/IRF promoters is inducible by appropriate innate immune stimuli, and extracellular sAP in the supernatant is proportional to NF-κB/IRF induction. Reporter cells were incubated at a density of ˜10^5 cells/ml in a volume of 80 μl/well, in 384-well, flat-bottomed, cell culture-treated microtiter plates in the presence of graded concentrations of stimuli. sAP was assayed spectrophotometrically using an alkaline phosphatase-specific chromogen (present in HEK-detection medium as supplied by InvivoGen) at 620 nm. Example 8: Multiplexed immunoassays for human cytokines: Fresh human peripheral blood mononuclear cells (hPBMC) were isolated from human blood obtained by venipuncture in Cell Preparation Tubes (CPT, Beckton-Dickinson) with informed consent and as per guidelines approved by the University of Minnesota Human Subjects Experimentation Committee. Aliquots of PBMCs or THP-1 cells (10^5 cells in 100 μL/well) were stimulated for 16 h with graded concentrations of test compounds. […]

[1] abbreviates: human NOD2 specific reporter gene assay, arithmetic mean of quadruplicate samples, NA* indicates inactive under the tested conditions, read-out: hNOD2 Agonistic Activity (μM), EC50.

“Also recorded” adds a separate entry of the source. Where two headings read alike, the source gives them in different places.

T1 sequence (Q9HC29 whole entry): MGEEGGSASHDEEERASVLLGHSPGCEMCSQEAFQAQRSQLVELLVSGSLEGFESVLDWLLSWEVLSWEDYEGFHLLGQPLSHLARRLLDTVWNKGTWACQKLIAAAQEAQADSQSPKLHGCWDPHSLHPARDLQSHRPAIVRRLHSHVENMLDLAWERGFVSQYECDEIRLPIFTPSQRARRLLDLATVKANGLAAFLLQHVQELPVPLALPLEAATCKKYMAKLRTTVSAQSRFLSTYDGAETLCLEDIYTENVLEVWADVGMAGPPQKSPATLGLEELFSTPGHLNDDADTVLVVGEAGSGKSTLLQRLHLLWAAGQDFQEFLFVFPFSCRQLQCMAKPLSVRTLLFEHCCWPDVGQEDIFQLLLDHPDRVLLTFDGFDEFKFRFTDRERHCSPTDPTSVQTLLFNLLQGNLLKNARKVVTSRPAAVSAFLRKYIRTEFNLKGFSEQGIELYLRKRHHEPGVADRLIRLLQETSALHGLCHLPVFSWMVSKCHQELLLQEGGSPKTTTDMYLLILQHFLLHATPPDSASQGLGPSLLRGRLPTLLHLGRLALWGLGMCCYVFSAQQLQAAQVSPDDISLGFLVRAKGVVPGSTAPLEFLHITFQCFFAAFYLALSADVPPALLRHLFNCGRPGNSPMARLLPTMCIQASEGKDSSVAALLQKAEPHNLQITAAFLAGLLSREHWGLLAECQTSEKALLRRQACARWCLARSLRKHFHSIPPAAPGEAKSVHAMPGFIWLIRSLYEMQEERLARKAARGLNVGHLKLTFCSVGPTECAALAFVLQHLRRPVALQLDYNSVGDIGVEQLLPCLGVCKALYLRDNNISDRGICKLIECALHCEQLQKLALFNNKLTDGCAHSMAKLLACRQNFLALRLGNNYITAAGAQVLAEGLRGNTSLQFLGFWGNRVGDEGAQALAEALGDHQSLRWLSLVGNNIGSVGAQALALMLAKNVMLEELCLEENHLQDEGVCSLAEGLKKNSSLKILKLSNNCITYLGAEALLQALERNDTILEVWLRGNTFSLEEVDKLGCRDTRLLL

As to `NC(=O)c1cc(-n2cnc3ccccc32)cs1` [Compound 2a, 4-(1H-Benzo[d]imidazol-1-yl)thiophene-2-carboxamide], the “hNOD2-agonistic activity (in words)” value (human NOD2 reporter gene assay) is on record as “Weak hNOD2-agonistic activity”. Besides, the EC50 (commonly the concentration that produces a half-maximal response) (human NOD2 reporter gene assay, read-out: EC50 values, human NOD2 agonistic potency) was 7.26 µM.

For the compound `NNC(=O)c1cc(-n2cnc3ccccc32)cs1` [Compound 2b, 4-(1H-Benzo[d]imidazol-1-yl)thiophene-2-carbohydrazide], where the note is “human NOD2 reporter gene assay”, the “hNOD2-agonistic activity (in words)” value is “inactive”.

As to `O=C(NO)c1cc(-n2cnc3ccccc32)cs1` [Compound 2c, 4-(1H-Benzo[d]imidazol-1-yl)-N-hydroxythiophene-2-carboxamide], the “hNOD2-agonistic activity (in words)” value (human NOD2 reporter gene assay) was “inactive”.

Turning to `CNC(=O)c1cc(-n2cnc3ccccc32)cs1` [Compound 2d, 4-(1H-Benzo[d]imidazol-1-yl)-N-methylthiophene-2-carboxamide], where the note is “human NOD2 reporter gene assay”, the “hNOD2-agonistic activity (in words)” value is “inactive”.

For the compound `CCCCNC(=O)c1cc(-n2cnc3ccccc32)cs1` [Compound 2e, 4-(1H-Benzo[d]imidazol-1-yl)-N-butylthiophene-2-carboxamide], the “hNOD2-agonistic activity (in words)” value (human NOD2 reporter gene assay) is “inactive”.

In the case of `O=C(Nc1ccccc1)c1cc(-n2cnc3ccccc32)cs1` [Compound 2f, 4-(1H-Benzo[d]imidazol-1-yl)-N-phenylthiophene-2-carboxamide], the “hNOD2-agonistic activity (in words)” value (human NOD2 reporter gene assay) is “inactive”.

On to `O=C(NCc1ccccc1)c1cc(-n2cnc3ccccc32)cs1` [Compound 2g, 4-(1H-Benzo[d]imidazol-1-yl)-N-benzylthiophene-2-carboxamide], for which the “hNOD2-agonistic activity (in words)” value (human NOD2 reporter gene assay) was “inactive”.

Turning to `O=C(NNc1ccccc1)c1cc(-n2cnc3ccccc32)cs1` [Compound 2h, 4-(1H-Benzo[d]imidazol-1-yl)-N′-phenylthiophene-2-carbohydrazide], the “hNOD2-agonistic activity (in words)” value (human NOD2 reporter gene assay) was “inactive”.

In the case of `O=C(Nc1ccncc1)c1cc(-n2cnc3ccccc32)cs1` [Compound 2i, 4-(1H-Benzo[d]imidazol-1-yl)-N-(pyridin-4-yl)thiophene-2-carboxamide], where the note is “human NOD2 reporter gene assay”, the “hNOD2-agonistic activity (in words)” value was “inactive”.

With `NCc1ccc(NC(=O)c2cc(-n3cnc4ccccc43)cs2)cc1` [Compound 2n, N-(4-(Aminomethyl)phenyl)-4-(1H-benzo[d]imidazol-1-yl)thiophene-2-carboxamide], the “hNOD2-agonistic activity (in words)” value (human NOD2 reporter gene assay) was “inactive”.

`NC(=O)c1cscc1-n1cnc2ccccc21` [Compound 3b, 4-(1H-Benzo[d]imidazol-1-yl)thiophene-3-carboxamide]: the “hNOD2-agonistic activity (in words)” value (human NOD2 reporter gene assay) was “inactive”.

As to `NC(=O)c1sccc1-n1cnc2ccccc21` [Compound 3c, 3-(1H-Benzo[d]imidazol-1-yl)thiophene-2-carboxamide], the “hNOD2-agonistic activity (in words)” value (human NOD2 reporter gene assay) was “inactive”.

As for `NC(=O)c1cc(-n2cnc3ccccc32)c[nH]1` [Compound 3d, 4-(1H-Benzo[d]imidazol-1-yl)-1H-pyrrole-2-carboxamide], where the note is “human NOD2 reporter gene assay”, the “hNOD2-agonistic activity (in words)” value was “devoid of activity”.

With `NC(=O)c1coc(-n2cnc3ccccc32)n1` [Compound 3e, 2-(1H-Benzo[d]imidazol-1-yl)oxazole-4-carboxamide], the “hNOD2-agonistic activity (in words)” value (human NOD2 reporter gene assay) is reported as “devoid of activity”.

As for `NC(=O)c1nc(-n2cnc3ccccc32)cs1` [Compound 3f, 4-(1H-Benzo[d]imidazol-1-yl)thiazole-2-carboxamide], under “human NOD2 reporter gene assay”, the “hNOD2-agonistic activity (in words)” value is “inactive; also recorded: devoid of activity”.

Take `NC(=O)c1csc(-n2cnc3ccccc32)n1` [Compound 3h, 2-(1H-Benzo[d]imidazol-1-yl)thiazole-4-carboxamide]: the “hNOD2-agonistic activity (in words)” value (human NOD2 reporter gene assay) is “devoid of activity”.

Regarding `NC(=O)c1cnc(-n2cnc3ccccc32)s1` [Compound 3i, 2-(1H-Benzo[d]imidazol-1-yl)thiazole-5-carboxamide], the “hNOD2-agonistic activity (in words)” value (human NOD2 reporter gene assay) is listed as “devoid of activity”.

Take `NC(=O)c1ccc(-n2cnc3ccccc32)cc1` [Compound 3j, 4-(1H-Benzo[d]imidazol-1-yl)benzamide]: where the note is “human NOD2 reporter gene assay”, the “hNOD2-agonistic activity (in words)” value was “devoid of activity”.

For `NC(=O)c1cccc(-n2cnc3ccccc32)c1` [Compound 3k, 3-(1H-Benzo[d]imidazol-1-yl)benzamide], the “hNOD2-agonistic activity (in words)” value (human NOD2 reporter gene assay) is on record as “devoid of activity”.

For `NC(=O)c1cncc(-n2cnc3ccccc32)c1` [Compound 3l, 5-(1H-Benzo[d]imidazol-1-yl)nicotinamide], the “hNOD2-agonistic activity (in words)” value (human NOD2 reporter gene assay) is reported as “devoid of activity”.

On to `N#Cc1cc(-n2cnc3ccccc32)cs1` [Compound 4a, 4-(1H-Benzo[d]imidazol-1-yl)thiophene-2-carbonitrile], for which the “hNOD2-agonistic activity (in words)” value (human NOD2 reporter gene assay) was “inactive”.

For `N=C(NO)c1cc(-n2cnc3ccccc32)cs1` [Compound 4b, 4-(1H-Benzo[d]imidazol-1-yl)-N-hydroxythiophene-2-carboximidamide], the “hNOD2-agonistic activity (in words)” value (human NOD2 reporter gene assay) was “inactive”.

For `Cc1nc2ccccc2n1-c1csc(C(N)=O)c1` [Compound 7a, 4-(2-Methyl-1H-benzo[d]imidazol-1-yl)thiophene-2-carboxamide], the “hNOD2-agonistic activity (in words)” value (human NOD2 reporter gene assay) is “lower potency than the hit compound”. Further, the EC50 under setting [1] came to 15.7 µM.

As for `CCc1nc2ccccc2n1-c1csc(C(N)=O)c1` [Compound 7b, 4-(2-Ethyl-1H-benzo[d]imidazol-1-yl)thiophene-2-carboxamide], where the note is “human NOD2 reporter gene assay”, the “hNOD2-agonistic activity (in words)” value is on record as “lower potency than the hit compound”. Further, the EC50 under setting [1] stood at 13.2 µM.

In the case of `CCCc1nc2ccccc2n1-c1csc(C(N)=O)c1` [Compound 7c, 4-(2-Propyl-1H-benzo[d]imidazol-1-yl)thiophene-2-carboxamide], the “hNOD2-agonistic activity (in words)” value (human NOD2 reporter gene assay) is “lower potency than the hit compound”. Besides, the EC50 under setting [1] came out at 8.26 µM.

`CCCCc1nc2ccccc2n1-c1csc(C(N)=O)c1` [Compound 7d, 4-(2-Butyl-1H-benzo[d]imidazol-1-yl)thiophene-2-carboxamide]: the concentration giving a half-maximal response (EC50) under setting [1] worked out at 2.07 µM.

Turning to `CCCCCCCCc1nc2ccccc2n1-c1csc(C(N)=O)c1` [Compound 7g, 4-(2-Octyl-1H-benzo[d]imidazol-1-yl)thiophene-2-carboxamide], the EC50 under setting [1] turned out to be 2.2 µM.

With `CCCCCCCCCc1nc2ccccc2n1-c1csc(C(N)=O)c1` [Compound 7h, 4-(2-Nonyl-1H-benzo[d]imidazol-1-yl)thiophene-2-carboxamide], the EC50 under setting [1] is 3.06 µM.

On to `CCCCCCCCCCCc1nc2ccccc2n1-c1csc(C(N)=O)c1` [Compound 7i, 4-(2-Undecyl-1H-benzo[d]imidazol-1-yl)thiophene-2-carboxamide], for which, under setting [1], the EC50 came out at 5.81 µM.

In the case of `CCCCCCCCCCCCCc1nc2ccccc2n1-c1csc(C(N)=O)c1` [Compound 7j, 4-(2-Tridecyl-1H-benzo[d]imidazol-1-yl)thiophene-2-carboxamide], the “hNOD2-agonistic activity (in words)” value (human NOD2 reporter gene assay) is “inactive”.

As to `CC(C)CCc1nc2ccccc2n1-c1csc(C(N)=O)c1` [Compound 7m, 4-(2-Isopentyl-1H-benzo[d]imidazol-1-yl)thiophene-2-carboxamide], the “hNOD2-agonistic activity (in words)” value (human NOD2 reporter gene assay) was “potencies very similar to the butyl analogue (7d)”. Also, the EC50 under setting [1] is 2.91 µM.

On to `C=C(C)CCc1nc2ccccc2n1-c1csc(C(N)=O)c1` [Compound 7n, 4-(2-(3-Methylbut-3-en-1-yl)-1H-benzo[d]imidazol-1-yl)thiophene-2-carboxamide], for which the “hNOD2-agonistic activity (in words)” value (human NOD2 reporter gene assay) is “potencies very similar to the butyl analogue (7d)”. The half-maximal effective concentration (EC50) under setting [1] amounted to 3.24 µM.
